Entries after “also recorded” stand apart in the source; their conditions may differ. Read-outs that look alike come from different tables or passages of the source.
Columns and labels:
[1] = system: ic-SARS-COV-2-mNeon infection in Huh7 cells; format: cell-based, human; conditions: for inhibition of ic-SARS-COV-2-mNeon infection by supernatant of stimulated human iNKT cells: 1 μg/mL lipid, iNKT + HeLa-hCD1d 24 h, supernatant on Huh7 cells
[2] = Toxicity noted in hamsters in the current study; format: in vivo
Source text: (§1) Without being bound by theory, 7DW8-5 can be an agent for pre-exposure prophylaxis to prevent infections by SARS-COV-2, RSV, influenza virus, and possibly other clinically important respiratory viruses. It is a chemical compound that is thermostable and thus simple to ship and store, cheap to manufacture, and easy to administer intranasally. It is expected that 7DW8-5 is similarly effective in people. […] Second, iNKT cells constitute up to 1% of peripheral blood mononuclear cells in both humans and mice^38,39, although the variability is greater among humans^38.

[3] = system: influenza A virus (H1N1) PR/8/34 (PR8) strain; experiment: Influenza A PR8 challenge of C57BL/6 mice; format: in vivo
[4] = Toxicity noted in mice in the current study; format: in vivo
Source text: as §1

Thermostability (stated) = format: physicochemical; conditions: stated in discussion, no test described
human RSV A2 strain = format: in vivo, BALB/c mice; conditions: 2 μg IN 2 days prior, 600,000 pfu RSV A2
splenocytes [5] = experiment: IFN-γ-secreting splenocytes in response to glycolipids in culture (mouse); format: cell-based
Source text: (§2) FIGS. 12A-B show relative number of IFN-γ-secreting splenocytes in hamster versus mouse in response to glycolipids in culture.
(§3) The relative number of IFN-γ-secreting splenocytes in hamster versus mouse in response to glycolipids in culture are shown in FIGS. 12A-B. 7DW8-5 administration affects IFN-γ-secreting splenocyte numbers in hamsters as shown in FIG. 12A. Cytokine induction

cytokines/chemokines = experiment: Cytokine/chemokine 31-Plex profile after intranasal administration; format: in vivo, BALB/c mice; conditions: 2 μg IN; one day after; BAL, nasal turbinate and lung homogenates, sera
[6] = up to 100 μg intramuscularly; cited from earlier work
lung mononuclear cells = experiment: Single-cell gene-expression analysis of lung mononuclear cells; format: in vivo, BALB/c mice; conditions: 2 μg IN; 24 h; lung CD45+ cells
splenocytes [7] = experiment: IFN-γ-secreting splenocytes in response to glycolipids in culture (hamster); format: cell-based
Source text: as §2, §3

mouse iNKT cells = mouse iNKT cells in vitro; cited from earlier work
IFNγ = format: in vivo, BALB/c mice; conditions: 2 μg IN; 24 h; nasal turbinate and lung homogenate supernatants, sera
human iNKT cells = human iNKT cells in vitro; cited from earlier work
SARS-COV-2 (USA/WA1) = experiment: Direct antiviral effect against SARS-COV-2 in Vero E6 cells (CPE); format: cell-based; conditions: Vero E6, MOI 0.1, 70 h
Experimental: After 30 min, SARS-COV-2 (USA/WA1) was added to each well to final MOI 0.1. Cells were incubated at 37 °C/5% CO2 for 70 h prior to scoring CPE. Percent inhibition was calculated from fold reduction in CPE over control wells receiving no drug. Remdesivir (RDV) was used as a positive control for the assay. Phosphatidylethanolamine (PE) and Biotin-phosphatidylethanolamine (B-PE) were used as a negative control. […] C57BL/6 mice (N=10) were given 2 μg of 7DW8-5 or saline by IN route 2 days before intranasal challenge with 5,000 pfu (lethal dose) of the PR8 strain. Kaplan-Meier Survival curve was plotted.

[8] = 6 IV doses of 0.12 mg/kg, cancer patients; cited from earlier work

CCCCCCCC/C=C\CCCCCCCC(=O)OC[C@H](COP(=O)(O)OCCNC(=O)CCCCCN)OC(=O)CCCCCCC/C=C\CCCCCCCC [1,2-dioleoyl-sn-glycero-3-phosphoethanolamine-N-(hexanoylamine), reference compound]
inhibition of ic-SARS-COV-2-mNeon infection by supernatant of stimulated human iNKT cells [1]: not

CCCCCCCCCCCCCC[C@@H](O)[C@@H](O)[C@H](CO[C@H]1O[C@H](CO)[C@H](O)[C@H](O)[C@H]1O)NC(=O)CCCCCCCCCCc1ccc(F)cc1 [7DW8-5]
toxicity [2]: lack of toxicity | body weight ([3]; 2 μg IN 2 days prior, 5,000 pfu PR8, day 3): significantly maintained body weight | body weight loss ([3]; 2 μg IN one day before 200 pfu PR8, day 3 (FIG. 7)): lack of body weight loss | body weight loss ([3]; 2 μg IN, 5000 pfu PR8, monitored every day after challenge (FIG. 8C)): ameliorated | survival ([3]; 2 μg IN, lethal dose 5×10^3 PFU PR8, all control mice died by Day 10): 8 of 10 and higher probability of survival | toxicity [4]: lack of toxicity | thermostability (Thermostability (stated)): thermostable | body weight (human RSV A2 strain): significantly prevented weight loss | virus replication in lung tissues (human RSV A2 strain; day 4, TCID50 in Hep2 cells): inhibited virus replication; also recorded: decreased | IFN-γ-secreting splenocytes (splenocytes [5]): increases | cytokines/chemokines incl. IFN-γ, IL-5, IL-6, IP-10, TNF-α, MCP1, MIG (cytokines/chemokines): Marked upregulation | adverse reactions [6]: did not lead to any adverse reactions | IFN-γ production in proliferative NK cells, T cells, iNKT cells (single-cell analysis) (lung mononuclear cells): apparent shift toward IFN-γ production | IFN-γ-secreting splenocyte numbers (splenocytes [7]): affects | immunostimulatory activity compared with α-GalCer (mouse iNKT cells): even more potent immunostimulatory activity | IFN-γ induction by ELISA (IFNγ): No evidence of IFN-γ induction; also recorded: minimal level | immunostimulatory activity (human iNKT cells): potent stimulatory effect | direct antiviral activity against SARS-COV-2 in vitro (SARS-COV-2 (USA/WA1)): no direct antiviral activity; also recorded: lack of a direct antiviral effect | inhibition of ic-SARS-COV-2-mNeon infection by supernatant of stimulated human iNKT cells [1]: display anti-viral activity; also recorded: significantly inhibit | inhibition by supernatant with neutralizing anti-human IFN-γ Ab added ([1]; anti-human IFN-γ antibody 1 μg/mL): inhibited; also recorded: completely abolished

CCCCCCCCCCCCCCCCCCCCCCCCCC(=O)NC(CO[C@H]1O[C@H](CO)[C@H](O)[C@H](O)[C@H]1O)[C@H](O)[C@H](O)CCCCCCCCCCCCCC (stereo partly drawn) [α-GalCer, N-[(3S,4R)-3,4-dihydroxy-1-[(2S,3R,4S,5R,6R)-3,4,5-trihydroxy-6-(hydroxymethyl)oxan-2-yl]oxyoctadecan-2-yl]hexacosanamide]
toxicity [8]: without evidence of toxicity

— patent US20250367225A1 (priority 2022, published 2025)
